Laboratory results from article PMC5632672, “Generation of Persister Cells of Pseudomonas aeruginosa and Staphylococcus aureus by Chemical Treatment and Evaluation of Their Susceptibility to Membrane-Targeting Agents” (Frontiers in Microbiology, 2017).
No end group written: not given here.

Assays:
[1] = system: Staphylococcus aureus ATCC 33591; details: ATCC 33591, 3 h
[2] = system: Pseudomonas aeruginosa ATCC 27853; details: ATCC 27853, 3 h

FLPIVGLLKSLLK-NH2 [TB_L1FK]
MBC, S. aureus CCCP-pretreated [1]: 3.5 µM | MBC, S. aureus CCCP-untreated [1]: 7 µM | MBC, P. aeruginosa CCCP-pretreated [2]: 14 µM | MBC, P. aeruginosa CCCP-untreated [2]: 14 µM
